Blank lines part the entries; values can stand above or below the molecule they belong to. Calls of active or inactive are those of the source.
What was measured:
[1] = molecular target: T1, Short transient receptor potential channel 4 (Mus musculus, UniProt Q9QUQ5); test: block of DAMGO-driven TRPC4 calcium entry – cell-based, HEK293 TRPC4/mu-opioid, Fluo-4 calcium, dose response (AID 434942); type: functional;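 note: potency of inhibitors blocking the TRPC4 calcium response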
T1 sequence (Q9QUQ5 whole entry): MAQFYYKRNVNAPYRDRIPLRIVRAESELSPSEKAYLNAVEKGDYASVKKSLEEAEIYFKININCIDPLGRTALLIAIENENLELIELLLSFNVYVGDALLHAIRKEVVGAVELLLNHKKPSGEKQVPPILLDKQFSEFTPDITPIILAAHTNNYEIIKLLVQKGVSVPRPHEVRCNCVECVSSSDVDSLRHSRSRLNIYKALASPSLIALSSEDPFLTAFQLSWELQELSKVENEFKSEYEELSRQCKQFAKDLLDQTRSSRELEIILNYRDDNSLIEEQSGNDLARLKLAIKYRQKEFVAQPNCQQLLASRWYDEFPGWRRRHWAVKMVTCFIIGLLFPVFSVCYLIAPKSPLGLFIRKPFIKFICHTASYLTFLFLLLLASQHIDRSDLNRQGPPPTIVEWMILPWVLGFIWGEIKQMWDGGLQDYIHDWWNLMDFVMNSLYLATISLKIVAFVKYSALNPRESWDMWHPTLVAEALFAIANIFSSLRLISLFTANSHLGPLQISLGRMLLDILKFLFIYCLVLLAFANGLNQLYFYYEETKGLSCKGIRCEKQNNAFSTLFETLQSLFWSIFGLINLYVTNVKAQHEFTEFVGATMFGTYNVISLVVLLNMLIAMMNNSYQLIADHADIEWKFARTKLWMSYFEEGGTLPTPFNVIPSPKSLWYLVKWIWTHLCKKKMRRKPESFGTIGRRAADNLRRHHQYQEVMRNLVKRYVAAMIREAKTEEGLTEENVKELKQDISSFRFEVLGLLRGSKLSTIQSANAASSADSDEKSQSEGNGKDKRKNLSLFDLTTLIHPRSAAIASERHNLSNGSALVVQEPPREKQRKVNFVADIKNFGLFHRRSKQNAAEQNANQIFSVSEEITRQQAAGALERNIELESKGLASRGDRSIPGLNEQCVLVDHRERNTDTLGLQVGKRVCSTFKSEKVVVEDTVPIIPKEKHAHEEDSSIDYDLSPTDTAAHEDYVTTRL

[2] = NIH3T3 cell viability loss – ATP luminescence, mouse fibroblasts, counter-screen, dose response (AID 2010); type: functional, cell-based;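 note: cells exposed to compound for about 90 hours before reading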
[3] = molecular target: T1, Short transient receptor potential channel 4; test: calcium entry via TRPC4 opening agents – cell-based, HEK293 TRPC4/mu-opioid, Fluo-4 calcium, dose response (AID 434937); type: functional
[4] = Trypanosoma cruzi growth suppression in host cells – NIH3T3 host cells, beta-gal luminescence, confirmation (AID 2044); type: functional, cell-based;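 note: intracellular parasites grown in NIH/3T3 mouse fibroblasts as host cells; luminescent beta-galactosidase reporter signal from transgenic T. cruzi replicating inside host cells; inhibitors lower the luminescence signal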
[5] = Luminescence-based dose response cell-based high throughput screening assay for cytotoxic compounds using the IEC-6 intestinal epithelial cell line. [Related pubchem assays: 1858 (Summary AID.), 1825 (Counterscreen.), 1907 (Confirmation screen.)]; type: functional
[6] = HEK-293T viability loss after treatment – luminescence, T-cell screen hits, cytotoxicity control for TCR NF-kB inhibitor project, dose response (AID 489026); type: functional, cell-based;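 note: cells exposed to compound about 14 hours before the viability readout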
BJ [7] = test: BJ-TERT-LT-ST fibroblast viability loss – cell-based, RAS-independent, luminescence, dose response (AID 1935); type: functional; conditions: Homo sapiens;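 note: BJ fibroblasts immortalized with TERT plus LT and ST oncogenes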
BJ [8] = test: cells; type: functional, cell-based; conditions: Homo sapiens
BJ [9] = test: BJ-TERT fibroblast viability loss – cell-based, RAS-independent, luminescence, dose response (AID 1933); type: functional; conditions: Homo sapiens
[10] = DRD fibroblast viability loss – cell-based, non-viral oncogenic, luminescence, dose response (AID 1934); type: functional; conditions: Homo sapiens
[11] = molecular target: T2, Carboxy-terminal domain RNA polymerase II polypeptide A small phosphatase 1 (Homo sapiens, UniProt Q9GZU7); test: CTDSP1 inhibitors, concentration-response, biochemical, absorbance readout, ultra-high-throughput screen actives (AID 540297); type: functional
T2 sequence (Q9GZU7 whole entry): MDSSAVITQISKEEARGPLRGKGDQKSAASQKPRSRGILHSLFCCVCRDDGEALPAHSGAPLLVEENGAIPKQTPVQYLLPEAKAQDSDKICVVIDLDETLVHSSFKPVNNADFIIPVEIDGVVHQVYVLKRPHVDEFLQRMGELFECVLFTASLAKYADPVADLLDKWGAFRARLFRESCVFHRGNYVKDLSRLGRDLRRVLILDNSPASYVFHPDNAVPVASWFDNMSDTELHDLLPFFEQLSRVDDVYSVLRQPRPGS

[12] = molecular target: Eukaryotic translation initiation factor 4E (Mus musculus, UniProt P63073); test: blockers of eIF4G binding by eIF4E – biochemical, TR-FRET, dose response (AID 855); type: functional;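 note: potency for disrupting eIF4E binding to eIF4GI seen as loss of FRET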
Chain of Eukaryotic translation initiation factor 4E (P63073 whole entry): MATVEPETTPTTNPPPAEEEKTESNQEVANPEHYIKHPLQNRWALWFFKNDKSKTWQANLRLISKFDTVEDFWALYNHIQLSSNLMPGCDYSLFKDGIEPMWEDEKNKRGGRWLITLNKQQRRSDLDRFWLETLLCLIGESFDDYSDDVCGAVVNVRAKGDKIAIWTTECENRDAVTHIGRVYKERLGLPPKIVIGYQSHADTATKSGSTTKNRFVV

[13] = molecular target: Potassium voltage-gated channel subfamily KQT member 2 (Rattus norvegicus, UniProt O88943); test: potentiation of rat KCNQ2 current – cell-based, retigabine-insensitive compounds, dose response (AID 2654); type: functional
Chain of Potassium voltage-gated channel subfamily KQT member 2 (O88943 whole entry): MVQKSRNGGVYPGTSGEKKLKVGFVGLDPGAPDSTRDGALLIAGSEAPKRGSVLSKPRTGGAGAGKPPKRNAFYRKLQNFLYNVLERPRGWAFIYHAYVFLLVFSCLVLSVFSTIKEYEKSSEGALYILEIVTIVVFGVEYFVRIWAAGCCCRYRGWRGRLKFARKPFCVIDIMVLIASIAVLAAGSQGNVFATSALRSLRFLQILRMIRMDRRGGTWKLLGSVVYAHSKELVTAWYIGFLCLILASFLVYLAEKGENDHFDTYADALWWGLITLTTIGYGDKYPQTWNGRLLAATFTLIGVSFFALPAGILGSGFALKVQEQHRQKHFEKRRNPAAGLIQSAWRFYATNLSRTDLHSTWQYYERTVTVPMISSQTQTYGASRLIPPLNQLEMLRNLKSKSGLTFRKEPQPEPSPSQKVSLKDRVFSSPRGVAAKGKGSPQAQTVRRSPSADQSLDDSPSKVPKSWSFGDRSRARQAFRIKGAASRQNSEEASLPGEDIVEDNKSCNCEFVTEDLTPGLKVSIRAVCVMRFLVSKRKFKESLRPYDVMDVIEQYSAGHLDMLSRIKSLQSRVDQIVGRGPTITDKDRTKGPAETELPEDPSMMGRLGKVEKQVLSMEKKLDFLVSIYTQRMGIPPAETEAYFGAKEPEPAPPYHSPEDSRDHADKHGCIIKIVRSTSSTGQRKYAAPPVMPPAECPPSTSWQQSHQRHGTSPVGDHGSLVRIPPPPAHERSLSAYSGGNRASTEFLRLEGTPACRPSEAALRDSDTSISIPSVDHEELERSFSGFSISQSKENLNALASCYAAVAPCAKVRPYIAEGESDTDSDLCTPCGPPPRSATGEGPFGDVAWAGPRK

[14] = HEK-293T cell viability reduction – luminescence, B-cell screen hits, cytotoxicity control for BCR NF-kB inhibitor project, dose response (AID 489021); type: functional, cell-based;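 note: HEK-293T cells carrying an NF-kB luciferase reporter; cells exposed to compound for about 14 hours before viability readout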
[15] = molecular target: T3, Voltage-gated N-type calcium channel alpha-1B subunit/Amyloid beta A4 precursor protein-binding family A member 1 (Homo sapiens, UniProt Q00975+Q02410); type: protein assay
T3 sequence (Q00975 whole entry): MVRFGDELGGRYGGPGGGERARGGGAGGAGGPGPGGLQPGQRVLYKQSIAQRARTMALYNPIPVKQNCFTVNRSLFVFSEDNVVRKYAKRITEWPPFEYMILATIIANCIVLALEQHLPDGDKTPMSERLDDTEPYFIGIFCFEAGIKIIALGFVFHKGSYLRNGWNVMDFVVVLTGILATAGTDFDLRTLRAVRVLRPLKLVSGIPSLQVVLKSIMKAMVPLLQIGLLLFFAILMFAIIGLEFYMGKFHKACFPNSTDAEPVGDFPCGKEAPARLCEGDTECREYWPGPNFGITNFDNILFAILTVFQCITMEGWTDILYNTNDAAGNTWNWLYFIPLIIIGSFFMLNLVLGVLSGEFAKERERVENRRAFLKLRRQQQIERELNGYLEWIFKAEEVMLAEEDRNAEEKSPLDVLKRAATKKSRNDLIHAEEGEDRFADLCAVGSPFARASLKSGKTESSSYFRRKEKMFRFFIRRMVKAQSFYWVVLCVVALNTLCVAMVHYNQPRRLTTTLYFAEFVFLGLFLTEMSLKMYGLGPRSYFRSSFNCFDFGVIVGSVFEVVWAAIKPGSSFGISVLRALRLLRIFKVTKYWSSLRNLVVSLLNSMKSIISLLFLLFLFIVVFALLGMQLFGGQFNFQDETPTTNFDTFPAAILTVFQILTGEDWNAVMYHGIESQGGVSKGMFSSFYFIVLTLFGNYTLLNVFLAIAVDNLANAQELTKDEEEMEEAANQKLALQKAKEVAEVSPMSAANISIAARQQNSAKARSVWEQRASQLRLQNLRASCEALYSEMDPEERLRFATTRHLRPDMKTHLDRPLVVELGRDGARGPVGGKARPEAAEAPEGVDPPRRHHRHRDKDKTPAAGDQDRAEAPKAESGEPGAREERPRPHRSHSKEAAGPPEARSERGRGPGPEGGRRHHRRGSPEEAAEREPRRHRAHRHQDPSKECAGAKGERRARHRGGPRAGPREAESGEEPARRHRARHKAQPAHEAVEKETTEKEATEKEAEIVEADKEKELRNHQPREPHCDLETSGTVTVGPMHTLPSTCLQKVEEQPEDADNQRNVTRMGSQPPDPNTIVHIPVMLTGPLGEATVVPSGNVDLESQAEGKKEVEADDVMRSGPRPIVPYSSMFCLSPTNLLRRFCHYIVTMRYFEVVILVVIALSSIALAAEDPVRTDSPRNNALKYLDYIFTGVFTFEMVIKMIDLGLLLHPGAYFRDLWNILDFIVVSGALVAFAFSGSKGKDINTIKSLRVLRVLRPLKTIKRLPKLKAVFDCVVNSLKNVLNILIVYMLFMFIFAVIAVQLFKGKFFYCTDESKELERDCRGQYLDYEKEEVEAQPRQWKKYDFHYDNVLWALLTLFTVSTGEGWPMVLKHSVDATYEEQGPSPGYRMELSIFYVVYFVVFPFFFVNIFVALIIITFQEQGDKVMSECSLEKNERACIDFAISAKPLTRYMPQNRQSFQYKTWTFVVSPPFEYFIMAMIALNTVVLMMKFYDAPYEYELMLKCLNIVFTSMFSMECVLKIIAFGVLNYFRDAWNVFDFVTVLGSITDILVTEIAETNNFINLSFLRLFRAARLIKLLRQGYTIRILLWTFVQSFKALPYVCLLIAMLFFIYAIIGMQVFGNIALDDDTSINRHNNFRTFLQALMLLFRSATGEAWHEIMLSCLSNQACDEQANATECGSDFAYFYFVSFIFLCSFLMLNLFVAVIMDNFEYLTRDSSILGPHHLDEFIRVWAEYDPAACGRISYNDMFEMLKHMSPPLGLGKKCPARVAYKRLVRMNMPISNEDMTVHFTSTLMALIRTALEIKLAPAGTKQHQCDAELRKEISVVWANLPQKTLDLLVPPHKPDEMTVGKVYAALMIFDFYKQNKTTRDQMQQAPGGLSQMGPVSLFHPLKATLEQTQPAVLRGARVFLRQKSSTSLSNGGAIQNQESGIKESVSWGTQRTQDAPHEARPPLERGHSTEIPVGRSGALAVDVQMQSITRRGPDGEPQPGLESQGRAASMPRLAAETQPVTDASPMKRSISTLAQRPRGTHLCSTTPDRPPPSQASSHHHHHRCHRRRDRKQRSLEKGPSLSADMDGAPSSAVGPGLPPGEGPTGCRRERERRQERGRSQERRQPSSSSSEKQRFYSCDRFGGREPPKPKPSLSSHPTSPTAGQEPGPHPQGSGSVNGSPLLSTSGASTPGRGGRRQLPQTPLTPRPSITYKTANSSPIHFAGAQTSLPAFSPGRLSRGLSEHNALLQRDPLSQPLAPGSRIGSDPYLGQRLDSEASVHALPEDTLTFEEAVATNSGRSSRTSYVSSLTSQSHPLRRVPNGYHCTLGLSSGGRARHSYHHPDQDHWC
T3 sequence (Q02410 whole entry): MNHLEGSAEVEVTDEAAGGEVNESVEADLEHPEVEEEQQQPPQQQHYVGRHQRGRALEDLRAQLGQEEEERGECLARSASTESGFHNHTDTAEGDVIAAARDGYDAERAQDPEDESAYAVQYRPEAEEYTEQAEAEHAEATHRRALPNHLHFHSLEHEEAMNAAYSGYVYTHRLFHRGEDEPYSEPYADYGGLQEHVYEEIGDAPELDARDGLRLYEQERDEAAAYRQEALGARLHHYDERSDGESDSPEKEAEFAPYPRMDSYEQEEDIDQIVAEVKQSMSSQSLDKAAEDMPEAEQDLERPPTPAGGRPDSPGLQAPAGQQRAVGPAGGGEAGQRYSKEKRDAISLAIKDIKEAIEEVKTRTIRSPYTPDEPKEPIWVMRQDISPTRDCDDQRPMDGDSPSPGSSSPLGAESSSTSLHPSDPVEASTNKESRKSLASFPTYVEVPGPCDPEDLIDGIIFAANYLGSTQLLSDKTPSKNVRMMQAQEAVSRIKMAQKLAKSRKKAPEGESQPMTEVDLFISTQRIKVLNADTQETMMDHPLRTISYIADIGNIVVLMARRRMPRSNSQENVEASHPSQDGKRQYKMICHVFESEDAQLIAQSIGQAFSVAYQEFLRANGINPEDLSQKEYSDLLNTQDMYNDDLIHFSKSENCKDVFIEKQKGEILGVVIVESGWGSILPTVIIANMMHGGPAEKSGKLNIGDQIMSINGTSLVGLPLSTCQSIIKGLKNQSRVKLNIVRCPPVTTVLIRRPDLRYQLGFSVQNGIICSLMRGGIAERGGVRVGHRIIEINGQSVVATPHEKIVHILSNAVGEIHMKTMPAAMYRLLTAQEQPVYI

[16] = molecular target: T3, Voltage-gated N-type calcium channel alpha-1B subunit/Amyloid beta A4 precursor protein-binding family A member 1; type: protein assay; remark: listed apart in the source
[17] = molecular target: T4, Heat shock factor protein 1 (Mus musculus, UniProt P38532); test: decrease of HSF1-responsive luciferase luminescence – cell-based, NIH3T3, dose retest, confirmation (AID 2382); type: functional;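 note: NIH3T3 fibroblasts with HSF1-driven luciferase reporter stressed by proteasome inhibitor MG132; luminescence from HSF1-driven luciferase expression after 8 hours of MG132 stress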
T4 sequence (P38532 whole entry): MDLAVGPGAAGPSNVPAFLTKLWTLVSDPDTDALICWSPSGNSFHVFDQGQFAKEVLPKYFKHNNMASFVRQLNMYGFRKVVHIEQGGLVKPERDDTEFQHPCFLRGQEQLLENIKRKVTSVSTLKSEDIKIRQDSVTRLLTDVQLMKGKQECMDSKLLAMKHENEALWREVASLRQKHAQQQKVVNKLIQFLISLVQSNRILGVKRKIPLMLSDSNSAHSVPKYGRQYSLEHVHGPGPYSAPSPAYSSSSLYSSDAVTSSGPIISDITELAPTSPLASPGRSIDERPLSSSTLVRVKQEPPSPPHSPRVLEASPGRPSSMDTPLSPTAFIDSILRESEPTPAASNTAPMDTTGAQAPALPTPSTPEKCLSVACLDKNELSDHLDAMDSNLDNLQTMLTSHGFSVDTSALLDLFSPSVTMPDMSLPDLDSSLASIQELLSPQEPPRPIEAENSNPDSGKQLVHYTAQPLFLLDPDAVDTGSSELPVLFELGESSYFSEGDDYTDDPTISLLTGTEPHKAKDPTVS

Hexokinase HKDC1 = molecular target: T5, Hexokinase HKDC1 (Homo sapiens, UniProt Q2TB90); test: inhibition of HKDC1 glucose phosphorylation – biochemical, W721R variant, dose response (AID 504729); type: functional
T5 sequence (Q2TB90 whole entry): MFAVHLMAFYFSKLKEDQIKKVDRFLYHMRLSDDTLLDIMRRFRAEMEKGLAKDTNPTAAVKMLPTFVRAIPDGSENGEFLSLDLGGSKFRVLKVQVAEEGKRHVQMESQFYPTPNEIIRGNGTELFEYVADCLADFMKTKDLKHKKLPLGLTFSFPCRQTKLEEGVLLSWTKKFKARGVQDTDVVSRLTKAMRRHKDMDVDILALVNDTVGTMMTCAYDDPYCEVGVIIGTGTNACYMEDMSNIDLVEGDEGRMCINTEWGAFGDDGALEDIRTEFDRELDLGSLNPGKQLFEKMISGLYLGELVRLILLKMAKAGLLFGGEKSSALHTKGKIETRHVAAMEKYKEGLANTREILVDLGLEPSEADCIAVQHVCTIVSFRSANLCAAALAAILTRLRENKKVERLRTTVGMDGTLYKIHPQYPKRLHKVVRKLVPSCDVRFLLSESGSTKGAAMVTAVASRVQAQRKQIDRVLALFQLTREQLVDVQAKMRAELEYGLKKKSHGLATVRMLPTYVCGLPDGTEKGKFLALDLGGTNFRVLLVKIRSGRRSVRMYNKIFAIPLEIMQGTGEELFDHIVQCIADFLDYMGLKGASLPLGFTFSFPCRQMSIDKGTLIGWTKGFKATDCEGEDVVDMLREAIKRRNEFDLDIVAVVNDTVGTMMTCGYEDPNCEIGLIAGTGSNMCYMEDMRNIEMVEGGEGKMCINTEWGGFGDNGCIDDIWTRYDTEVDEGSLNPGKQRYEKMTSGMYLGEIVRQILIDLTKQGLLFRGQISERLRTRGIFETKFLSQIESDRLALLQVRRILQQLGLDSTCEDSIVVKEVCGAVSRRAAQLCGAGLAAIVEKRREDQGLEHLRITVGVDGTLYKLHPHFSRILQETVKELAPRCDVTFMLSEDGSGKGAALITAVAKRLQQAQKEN

Trypsin = Trypsin (Sus scrofa, UniProt P00761); test: trypsin protease activity blockade – biochemical, quenched peptide fluorescence, cherry-pick, selectivity assay for Rce1 protease inhibitor project, dose response (AID 488789)
Chain of Trypsin (P00761 whole entry): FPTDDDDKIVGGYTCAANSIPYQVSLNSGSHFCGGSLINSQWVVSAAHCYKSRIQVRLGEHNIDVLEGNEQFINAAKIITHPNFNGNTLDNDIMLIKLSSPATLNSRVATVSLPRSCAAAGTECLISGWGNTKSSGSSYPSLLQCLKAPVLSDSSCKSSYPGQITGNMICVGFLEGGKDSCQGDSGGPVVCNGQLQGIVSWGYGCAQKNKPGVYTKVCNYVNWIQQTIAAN

Cytochrome P450 2D6 = Cytochrome P450 2D6 (Homo sapiens, UniProt P10635);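 note: CYP2D6 member of a cytochrome P450 panel assay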
Chain of Cytochrome P450 2D6 (P10635 whole entry): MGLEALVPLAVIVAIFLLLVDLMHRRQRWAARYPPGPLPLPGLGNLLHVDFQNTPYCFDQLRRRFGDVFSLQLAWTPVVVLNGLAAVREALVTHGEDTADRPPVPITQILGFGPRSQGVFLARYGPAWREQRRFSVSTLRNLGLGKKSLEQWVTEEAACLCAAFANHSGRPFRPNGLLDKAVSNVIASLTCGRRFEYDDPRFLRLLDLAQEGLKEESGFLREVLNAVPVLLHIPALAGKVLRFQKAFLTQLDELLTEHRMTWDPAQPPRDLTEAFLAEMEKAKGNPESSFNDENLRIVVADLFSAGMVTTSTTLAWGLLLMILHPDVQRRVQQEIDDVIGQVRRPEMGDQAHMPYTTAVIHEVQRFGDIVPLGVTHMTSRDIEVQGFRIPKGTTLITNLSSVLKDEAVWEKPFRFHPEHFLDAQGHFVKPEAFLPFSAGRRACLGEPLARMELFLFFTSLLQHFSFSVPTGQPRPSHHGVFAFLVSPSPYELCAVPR

[18] = molecular target: T6, Corticotropin-releasing factor receptor 2/Corticotropin-releasing factor-binding protein (Homo sapiens, UniProt P24387+Q13324); test: Dose Response confirmation of uHTS hits for small molecule antagonists of the CRF-binding protein and CRF-R2 receptor complex.; type: functional; conditions: read-out: IC50_Mean
T6 sequence (Q13324 whole entry): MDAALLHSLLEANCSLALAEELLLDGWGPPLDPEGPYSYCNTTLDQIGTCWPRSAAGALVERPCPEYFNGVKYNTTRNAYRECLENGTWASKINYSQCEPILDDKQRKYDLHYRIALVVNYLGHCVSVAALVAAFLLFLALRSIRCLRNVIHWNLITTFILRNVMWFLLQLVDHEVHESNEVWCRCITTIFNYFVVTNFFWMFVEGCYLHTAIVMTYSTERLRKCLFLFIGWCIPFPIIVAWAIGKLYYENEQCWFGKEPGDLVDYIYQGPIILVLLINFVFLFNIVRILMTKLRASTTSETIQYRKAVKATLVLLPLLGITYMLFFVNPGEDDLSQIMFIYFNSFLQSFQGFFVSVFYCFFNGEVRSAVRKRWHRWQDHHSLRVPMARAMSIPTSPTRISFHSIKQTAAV
T6 sequence (P24387 whole entry): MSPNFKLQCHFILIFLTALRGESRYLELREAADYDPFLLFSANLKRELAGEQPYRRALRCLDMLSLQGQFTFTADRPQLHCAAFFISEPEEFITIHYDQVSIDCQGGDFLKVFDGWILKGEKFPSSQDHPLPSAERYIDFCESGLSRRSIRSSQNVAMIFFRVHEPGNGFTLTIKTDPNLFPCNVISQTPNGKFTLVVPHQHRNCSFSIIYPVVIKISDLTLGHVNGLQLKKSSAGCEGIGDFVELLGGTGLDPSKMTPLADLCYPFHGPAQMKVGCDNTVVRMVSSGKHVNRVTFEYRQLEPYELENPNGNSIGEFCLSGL

[19] = molecular target: T6, Corticotropin-releasing factor receptor 2/Corticotropin-releasing factor-binding protein; test: activators of CRF receptor 2 with binding protein – uHTS hits, confirmation (AID 602473); type: functional; conditions: read-out: EC50_Mean

SMILES: Cc1ccccc1Nc1nc(NCc2ccco2)c2ccccc2n1
EC50 [1]: 1.06 µM (active)
EC50 [2]: > 60 µM (not active)
EC50 [3]: 5.96 µM (active)
EC50 (cells): 0.023 µM (active)
EC50 [4]: < 0.1 µM (active)

SMILES: CC(=O)O[C@@]12CO[C@@H]1C[C@@H](O)[C@@]1(C)C(=O)[C@H](O)C3=C(C)[C@@H](OC(=O)[C@H](O)[C@@H](NC(=O)c4ccccc4)c4ccccc4)C[C@@](O)([C@@H](OC(=O)c4ccccc4)C12)C3(C)C (some centres undefined)
IC50 [5]: 0.157 µM (active)
EC50 [2]: 5.97 µM (active)
IC50 [6]: > 80 µM (inactive)
EC50 (BJ [7]): 0.434 µM (inconclusive)
EC50 (cells): 0.022 µM (active)
EC50 (BJ [8]): 44.8 µM (inconclusive)
EC50 (BJ [9]): 0.645 µM (active)
EC50 [4]: < 0.1 µM (active)
EC50 [10]: 0.567 µM (active)

SMILES: CN(Cc1ccccc1)C(=O)COC(=O)/C=C/c1ccco1
IC50 [11]: 12.5 µM (active)
IC50 [12]: 50 µM (inactive)

SMILES: O=C(NNC(=O)C12CC3CC(CC(C3)C1)C2)c1cccc(O)c1
IC50 [14]: > 80 µM (inactive)

SMILES: Cc1ccc(/C=C2\SC(=S)N(CCCC(=O)Nc3cccnc3)C2=O)cc1
EC50 [17]: 0.255 µM (active)
IC50 [14]: > 80 µM (inactive)

SMILES: CN1CCC(NCCC(c2ccc(F)cc2)c2ccc(Cl)cc2)CC1 (centres undefined)
IC50 [5]: 5.34 µM (active)

SMILES: COC1=CC(=O)C(OC)=C(OC)C1=O
IC50 (Hexokinase HKDC1): 2.56 µM (active)

SMILES: COc1ccc(C(=O)Nc2nnc(SCC(=O)Nc3ccc(NC(C)=O)cc3)s2)c(OC)c1
IC50 [14]: > 80 µM (inactive)

Results, then the molecule that gave them:

EC50 [13]: 5.76 µM (active)
SMILES: O=C(Nc1ccc(F)nc1)Nc1cccc(F)c1

IC50 [15]: 5.41 µM (active)
IC50 [16]: > 50 µM (inactive)
SMILES: O=C(CCN1C(=O)/C(=C/c2ccccc2Cl)SC1=S)NC1C=CS(=O)(=O)C1 (centres undefined)

IC50 [12]: > 64 µM (inactive)
SMILES: CCSc1ccc2nnc(-c3cccc(F)c3)n2n1

IC50 (Hexokinase HKDC1): 20.4 µM (inactive)
SMILES: COc1ccc(OC)c2nc(O)c(CCNC(=O)c3cc4ccccc4o3)cc12

AC50 (Trypsin): 6.54 µM (active)
SMILES: O=C(NC1CC1)c1ccc2c(c1)N(Cc1ccccc1)CCS2

EC50 [13]: 4.21 µM (active)
SMILES: O=C(Nc1cccnc1)Nc1ccc(F)c(Cl)c1

AC50 (Cytochrome P450 2D6): 15.8 µM (inconclusive)
IC50 [12]: > 64 µM (inactive)
SMILES: CC(C)(C)c1[nH]nc2c1C(c1ccc(OC(=O)c3ccco3)cc1)C(C#N)=C(N)O2 (centres undefined)

IC50 [18]: > 47.1 µM (inactive)
EC50 [19]: > 53 µM (inactive)
EC50 [13]: 268 µM (active)
SMILES: CCCCc1ccc(NC(=S)Nc2cccnc2)cc1

— ChEMBL document CHEMBL1201862, “PubChem BioAssay data set” (2004)
